In brackets after ≈: the same amount, converted by molar mass.

Common to all, as to type: functional
Assay [1] relates to Streptococcus pyogenes. Briefly: Antibacterial activity against Streptococcus pyogenes 2 expressing constitutive ermB methylase after 20 hrs by agar dilution method. To be noted: Streptococcus pyogenes, 2, 20 h. (In general: In agar dilution the substance is mixed into plates at graded concentrations.)
The subject of assay [2] is Streptococcus pneumoniae. Nature of the assay: Antibacterial activity against Streptococcus pneumoniae 9 expressing inducible ermB methylase after 20 hrs by agar dilution method. The following applies: Streptococcus pneumoniae, 9, 20 h.
In assay [3] the test system is Streptococcus pneumoniae. Briefly: Antibacterial activity against Streptococcus pneumoniae 7 expressing constitutive ermB methylase after 20 hrs by agar dilution method. The following applies: Streptococcus pneumoniae, 7, 20 h.
In assay [4] the test system is Streptococcus pneumoniae. Briefly: Antibacterial activity against Streptococcus pneumoniae 11 expressing mefA efflux pump after 20 hrs by agar dilution method. To be noted: Streptococcus pneumoniae, 11, 20 h.
The subject of assay [5] is Streptococcus pneumoniae. Briefly: Antibacterial activity against Streptococcus pneumoniae 8 expressing inducible ermB methylase after 20 hrs by agar dilution method. The following applies: Streptococcus pneumoniae, 8, 20 h.
Assay [6] deals with Haemophilus influenzae. Briefly: Antibacterial activity against Haemophilus influenzae 2 after 20 hrs by agar dilution method. To be noted: Haemophilus influenzae, 2, 20 h.
The subject of assay [7] is Haemophilus influenzae. Nature of the assay: Antibacterial activity against Haemophilus influenzae 3 after 20 hrs by agar dilution method. The following applies: Haemophilus influenzae, 3, 20 h.
In assay [8] the test system is Streptococcus pneumoniae. Nature of the assay: Antibacterial activity against Streptococcus pneumoniae DP1 type 1 after 20 hrs by agar dilution method. The following applies: DP1 type1, 20 h.
Assay [9] deals with Streptococcus pyogenes. Nature of the assay: Antibacterial activity against Streptococcus pyogenes 3 expressing mefA efflux pump after 20 hrs by agar dilution method. The following applies: Streptococcus pyogenes, 3, 20 h.
Assay [10] has as its system Haemophilus influenzae. Nature of the assay: Antibacterial activity against Haemophilus influenzae 1 after 20 hrs by agar dilution method. The following applies: Haemophilus influenzae, 1, 20 h.
Assay [11] relates to Streptococcus pneumoniae. Nature of the assay: Antibacterial activity against Streptococcus pneumoniae 5 expressing constitutive ermB methylase after 20 hrs by agar dilution method. The following applies: Streptococcus pneumoniae, 5, 20 h.
The next assay has as its system Staphylococcus aureus. Nature of the assay: Antibacterial activity against Staphylococcus aureus 209P JC1 after 20 hrs by agar dilution method. The following applies: 209P JC1, 20 h.
In assay [12] the test system is Streptococcus pneumoniae. Nature of the assay: Antibacterial activity against Streptococcus pneumoniae 10 expressing mefA efflux pump after 20 hrs by agar dilution method. To be noted: Streptococcus pneumoniae, 10, 20 h.
Assay [13] relates to Streptococcus pneumoniae. Nature of the assay: Antibacterial activity against Streptococcus pneumoniae 6 expressing constitutive ermB methylase and mefA after 20 hrs by agar dilution method. The following applies: Streptococcus pneumoniae, 6, 20 h.
Assay [14] deals with Streptococcus pyogenes. Briefly: Antibacterial activity against Streptococcus pyogenes Cook after 20 hrs by agar dilution method.

`CCNC(=O)O[C@H]1[C@H](C)O[C@@H](O[C@H]2[C@H](N(C)C)[C@@H](O)[C@H](O[C@H]3[C@@H](CC=O)C[C@@H](C)[C@@H](O)CN(C)CCC[C@H](C/C=C/c4ccc(N)nc4)OC(=O)C[C@@H](OC(=O)CC)[C@@H]3OC)O[C@@H]2C)C[C@@]1(C)OC(=O)CC`: the MIC against Streptococcus pyogenes [1] was over 32 µg/mL; against Streptococcus pneumoniae [2] it was 0.5 µg/mL (≈ 0.489 µM); with Streptococcus pneumoniae [3] it was 8 µg/mL (≈ 7.83 µM); with Streptococcus pneumoniae [4] it was 0.06 µg/mL (≈ 0.0587 µM); in the assay on Streptococcus pneumoniae [5] it was 0.25 µg/mL (≈ 0.245 µM); with Haemophilus influenzae [6] it was 16 µg/mL (≈ 15.7 µM). Further, the MIC is 32 µg/mL (≈ 31.3 µM) in the assay with Haemophilus influenzae [7]; 0.03 µg/mL (≈ 0.0293 µM) in the assay with Streptococcus pneumoniae [8]; 0.5 µg/mL (≈ 0.489 µM) against Streptococcus pyogenes [9]; 4 µg/mL (≈ 3.91 µM) in the assay with Haemophilus influenzae [10]; 8 µg/mL (≈ 7.83 µM) in the assay with Streptococcus pneumoniae [11]; 1 µg/mL (≈ 0.978 µM) with Staphylococcus aureus. Further, the MIC against Streptococcus pneumoniae [12] worked out at 0.06 µg/mL (≈ 0.0587 µM); in the assay on Streptococcus pneumoniae [13] it was 8 µg/mL (≈ 7.83 µM); against Streptococcus pyogenes [14], 0.13 µg/mL (≈ 0.127 µM).
Take `CCC(=O)O[C@@H]1CC(=O)O[C@@H](C/C=C/c2ccc3ccccc3c2)CCCN(C)C[C@H](O)[C@H](C)C[C@H](CC=O)[C@H](O[C@@H]2O[C@H](C)[C@@H](O[C@H]3C[C@@](C)(O)[C@@H](OC(=O)CC)[C@H](C)O3)[C@H](N(C)C)[C@H]2O)[C@H]1OC`: the MIC with Streptococcus pyogenes [1] is 32 µg/mL (≈ 32.5 µM); against Streptococcus pneumoniae [2], 8 µg/mL (≈ 8.12 µM); in the assay with Streptococcus pneumoniae [3] it was 32 µg/mL (≈ 32.5 µM); in the assay on Streptococcus pneumoniae [4], 0.13 µg/mL (≈ 0.132 µM); with Streptococcus pneumoniae [5] it was 8 µg/mL (≈ 8.12 µM); against Haemophilus influenzae [6], 16 µg/mL (≈ 16.2 µM). The MIC in the assay with Haemophilus influenzae [7] amounted to 16 µg/mL (≈ 16.2 µM); against Streptococcus pneumoniae [8] it was 0.06 µg/mL (≈ 0.0609 µM); with Streptococcus pyogenes [9], 1 µg/mL (≈ 1.01 µM); with Haemophilus influenzae [10], 8 µg/mL (≈ 8.12 µM); against Streptococcus pneumoniae [11] it was 32 µg/mL (≈ 32.5 µM); against Staphylococcus aureus, 0.5 µg/mL (≈ 0.507 µM). The MIC was 0.13 µg/mL (≈ 0.132 µM) with Streptococcus pneumoniae [12], 32 µg/mL (≈ 32.5 µM) in the assay with Streptococcus pneumoniae [13] and 0.25 µg/mL (≈ 0.254 µM) against Streptococcus pyogenes [14].
`CC[C@H]1OC(=O)[C@H](C)[C@@H](O[C@H]2C[C@@](C)(OC)[C@@H](O)[C@H](C)O2)[C@H](C)[C@@H](O[C@@H]2O[C@H](C)C[C@H](N(C)C)[C@H]2O)[C@](C)(OC)C[C@@H](C)C(=O)[C@H](C)[C@@H](O)[C@]1(C)O` [CLARITHROMYCIN]: the MIC is over 128 µg/mL in the assay with Streptococcus pyogenes [1]; over 128 µg/mL in the assay on Streptococcus pneumoniae [2]; over 128 µg/mL against Streptococcus pneumoniae [3]; 1 µg/mL (≈ 1.34 µM) against Streptococcus pneumoniae [4]; over 128 µg/mL against Streptococcus pneumoniae [5]; 8 µg/mL (≈ 10.7 µM) in the assay on Haemophilus influenzae [6]. Also, the MIC was 8 µg/mL (≈ 10.7 µM) in the assay on Haemophilus influenzae [7]; 0.03 µg/mL (≈ 0.0401 µM) against Streptococcus pneumoniae [8]; 8 µg/mL (≈ 10.7 µM) with Streptococcus pyogenes [9]; 2 µg/mL (≈ 2.67 µM) in the assay on Haemophilus influenzae [10]; over 128 µg/mL against Streptococcus pneumoniae [11]; 0.13 µg/mL (≈ 0.174 µM) in the assay with Staphylococcus aureus. Besides, the MIC in the assay with Streptococcus pneumoniae [12] was 1 µg/mL (≈ 1.34 µM); in the assay on Streptococcus pneumoniae [13], over 128 µg/mL; in the assay with Streptococcus pyogenes [14], 0.03 µg/mL (≈ 0.0401 µM).
For `CCNC(=O)O[C@H]1[C@H](C)O[C@@H](O[C@H]2[C@H](N(C)C)[C@@H](O)[C@H](O[C@H]3[C@@H](CC=O)C[C@@H](C)[C@@H](O)CN(C)CCC[C@H](C/C=C/c4cnc(N)c5ccccc45)OC(=O)C[C@@H](O)[C@@H]3OC)O[C@@H]2C)C[C@@]1(C)OC(=O)CC`, the MIC against Streptococcus pyogenes [1] turned out to be 2 µg/mL (≈ 1.97 µM); with Streptococcus pneumoniae [2], 0.03 µg/mL (≈ 0.0295 µM); against Streptococcus pneumoniae [3] it was 1 µg/mL (≈ 0.984 µM); with Streptococcus pneumoniae [4], 0.015 µg/mL (≈ 0.0148 µM); against Streptococcus pneumoniae [5], 0.06 µg/mL (≈ 0.059 µM); against Haemophilus influenzae [6] it was 4 µg/mL (≈ 3.94 µM). Also, the MIC against Haemophilus influenzae [7] turned out to be 8 µg/mL (≈ 7.87 µM); with Streptococcus pneumoniae [8], 0.015 µg/mL (≈ 0.0148 µM); with Streptococcus pyogenes [9] it was 0.03 µg/mL (≈ 0.0295 µM); against Haemophilus influenzae [10], 2 µg/mL (≈ 1.97 µM); against Streptococcus pneumoniae [11], 1 µg/mL (≈ 0.984 µM); against Staphylococcus aureus it was 0.5 µg/mL (≈ 0.492 µM). The MIC against Streptococcus pneumoniae [12] was found to be 0.015 µg/mL (≈ 0.0148 µM); against Streptococcus pneumoniae [13], 1 µg/mL (≈ 0.984 µM); with Streptococcus pyogenes [14], 0.03 µg/mL (≈ 0.0295 µM).
As to `CCC(=O)O[C@@H]1CC(=O)O[C@@H](C/C=C/c2cnc3ccccc3c2)CCCN(C)C[C@H](O)[C@H](C)C[C@H](CC=O)[C@H](O[C@@H]2O[C@H](C)[C@@H](O[C@H]3C[C@@](C)(OC(=O)CC)[C@@H](OC(=O)N(C)C)[C@H](C)O3)[C@H](N(C)C)[C@H]2O)[C@H]1OC`, the MIC is over 32 µg/mL against Streptococcus pyogenes [1]; 0.5 µg/mL (≈ 0.473 µM) against Streptococcus pneumoniae [2]; over 32 µg/mL in the assay with Streptococcus pneumoniae [3]; 0.06 µg/mL (≈ 0.0567 µM) against Streptococcus pneumoniae [4]; 0.25 µg/mL (≈ 0.236 µM) against Streptococcus pneumoniae [5]; 32 µg/mL (≈ 30.3 µM) in the assay with Haemophilus influenzae [6]. In addition, the MIC with Haemophilus influenzae [7] was 32 µg/mL (≈ 30.3 µM); with Streptococcus pneumoniae [8] it was 0.03 µg/mL (≈ 0.0284 µM); against Streptococcus pyogenes [9], 0.06 µg/mL (≈ 0.0567 µM); in the assay on Haemophilus influenzae [10], 8 µg/mL (≈ 7.57 µM); against Streptococcus pneumoniae [11], 32 µg/mL (≈ 30.3 µM); with Staphylococcus aureus, 0.25 µg/mL (≈ 0.236 µM). For the same compound, the results for the MIC against Streptococcus pneumoniae [12], in the assay with Streptococcus pneumoniae [13] and in the assay with Streptococcus pyogenes [14] were 0.06 µg/mL (≈ 0.0567 µM), over 32 µg/mL and 0.06 µg/mL (≈ 0.0567 µM), respectively.

Values taken from ChEMBL document CHEMBL1156987, “Novel azalides derived from 16-membered macrolides. III. Azalides modified at the C-15 and 4'' positions: Improved antibacterial activities” (Bioorg Med Chem, 2010).
